Active and inactive are the calls of the source. The rule behind the calls is not given here. Where only a bound is given, the exact number is not on record here.

Test [1] addresses Metabotropic glutamate receptor 3 (Rattus norvegicus, UniProt P31422). The experiment in a line: Positive allosteric modulator activity at rat mGlu3 receptor transfected in GIRK channel overexpressing cells assessed as potentiation of glutamate-induced response by thallium mobilization assay.
Test [2] deals with Metabotropic glutamate receptor 2 (Rattus norvegicus) (UniProt P31421). The experiment in a line: Positive allosteric modulator activity at rat mGlu2 receptor transfected in GIRK channel overexpressing cells assessed as potentiation of glutamate -induced response by thallium mobilization assay relative to glutamate. Also noted: concentration or dose not given beside the values.

Test [3] has as its target Metabotropic glutamate receptor 3 (Rattus norvegicus) (UniProt P31422). The experiment in a line: Positive allosteric modulator activity at rat mGlu3 receptor transfected in GIRK channel overexpressing cells assessed as potentiation of glutamate-induced response by thallium mobilization assay relative to glutamate. Also noted: concentration or dose not given beside the values.

The target of test [4] is Metabotropic glutamate receptor 2 (Rattus norvegicus, UniProt P31421). Briefly: Positive allosteric modulator activity at rat mGlu2 receptor transfected in GIRK channel overexpressing cells assessed as potentiation of glutamate-induced response by thallium mobilization assay.
Setting [5] is: filed as positive allosteric modulator.

Sequence of Metabotropic glutamate receptor 3 (Rattus norvegicus) (P31422 23-879 limits assumed): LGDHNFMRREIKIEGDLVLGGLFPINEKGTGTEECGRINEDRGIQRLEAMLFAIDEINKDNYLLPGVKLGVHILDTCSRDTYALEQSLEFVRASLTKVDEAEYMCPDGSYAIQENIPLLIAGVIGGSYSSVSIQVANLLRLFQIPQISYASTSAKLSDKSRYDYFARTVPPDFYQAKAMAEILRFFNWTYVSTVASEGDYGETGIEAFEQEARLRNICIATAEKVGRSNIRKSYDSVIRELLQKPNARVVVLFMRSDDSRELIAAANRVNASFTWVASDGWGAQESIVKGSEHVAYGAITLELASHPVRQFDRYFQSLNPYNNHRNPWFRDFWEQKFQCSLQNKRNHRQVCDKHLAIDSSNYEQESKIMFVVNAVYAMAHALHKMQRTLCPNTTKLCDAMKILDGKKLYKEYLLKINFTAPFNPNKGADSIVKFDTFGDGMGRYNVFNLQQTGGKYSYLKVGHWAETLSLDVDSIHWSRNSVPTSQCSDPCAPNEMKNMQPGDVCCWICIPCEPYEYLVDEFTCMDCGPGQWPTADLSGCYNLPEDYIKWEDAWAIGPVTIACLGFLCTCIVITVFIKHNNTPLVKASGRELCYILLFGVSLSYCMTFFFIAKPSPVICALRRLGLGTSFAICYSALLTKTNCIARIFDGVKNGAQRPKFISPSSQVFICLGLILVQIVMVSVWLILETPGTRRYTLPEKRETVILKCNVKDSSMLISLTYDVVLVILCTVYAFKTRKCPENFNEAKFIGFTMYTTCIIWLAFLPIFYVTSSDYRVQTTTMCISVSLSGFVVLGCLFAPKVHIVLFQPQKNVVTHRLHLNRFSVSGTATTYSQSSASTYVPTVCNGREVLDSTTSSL
Sequence of Metabotropic glutamate receptor 2 (P31421 whole entry): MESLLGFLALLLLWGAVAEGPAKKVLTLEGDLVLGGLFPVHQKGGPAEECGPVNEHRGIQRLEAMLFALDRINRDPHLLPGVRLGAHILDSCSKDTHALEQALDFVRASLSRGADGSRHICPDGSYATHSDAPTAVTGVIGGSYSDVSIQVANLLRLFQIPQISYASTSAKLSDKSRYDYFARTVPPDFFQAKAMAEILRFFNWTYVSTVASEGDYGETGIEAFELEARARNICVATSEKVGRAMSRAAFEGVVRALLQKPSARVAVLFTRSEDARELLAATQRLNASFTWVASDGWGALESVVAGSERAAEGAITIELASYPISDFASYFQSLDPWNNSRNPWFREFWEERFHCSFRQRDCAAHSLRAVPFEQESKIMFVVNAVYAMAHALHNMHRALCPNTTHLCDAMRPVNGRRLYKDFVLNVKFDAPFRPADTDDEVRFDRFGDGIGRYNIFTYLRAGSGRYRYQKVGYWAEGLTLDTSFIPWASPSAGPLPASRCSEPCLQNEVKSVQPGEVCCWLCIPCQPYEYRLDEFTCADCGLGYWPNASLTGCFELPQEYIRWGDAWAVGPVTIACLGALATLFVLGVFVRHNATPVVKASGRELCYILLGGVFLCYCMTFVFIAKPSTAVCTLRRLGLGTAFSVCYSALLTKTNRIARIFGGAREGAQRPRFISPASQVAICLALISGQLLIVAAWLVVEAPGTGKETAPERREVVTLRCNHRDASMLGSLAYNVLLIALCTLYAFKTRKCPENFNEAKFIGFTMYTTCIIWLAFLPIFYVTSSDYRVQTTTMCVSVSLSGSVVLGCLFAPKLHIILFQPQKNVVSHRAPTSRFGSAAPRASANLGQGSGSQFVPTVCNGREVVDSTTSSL
Sequence of Metabotropic glutamate receptor 3 (P31422 whole entry): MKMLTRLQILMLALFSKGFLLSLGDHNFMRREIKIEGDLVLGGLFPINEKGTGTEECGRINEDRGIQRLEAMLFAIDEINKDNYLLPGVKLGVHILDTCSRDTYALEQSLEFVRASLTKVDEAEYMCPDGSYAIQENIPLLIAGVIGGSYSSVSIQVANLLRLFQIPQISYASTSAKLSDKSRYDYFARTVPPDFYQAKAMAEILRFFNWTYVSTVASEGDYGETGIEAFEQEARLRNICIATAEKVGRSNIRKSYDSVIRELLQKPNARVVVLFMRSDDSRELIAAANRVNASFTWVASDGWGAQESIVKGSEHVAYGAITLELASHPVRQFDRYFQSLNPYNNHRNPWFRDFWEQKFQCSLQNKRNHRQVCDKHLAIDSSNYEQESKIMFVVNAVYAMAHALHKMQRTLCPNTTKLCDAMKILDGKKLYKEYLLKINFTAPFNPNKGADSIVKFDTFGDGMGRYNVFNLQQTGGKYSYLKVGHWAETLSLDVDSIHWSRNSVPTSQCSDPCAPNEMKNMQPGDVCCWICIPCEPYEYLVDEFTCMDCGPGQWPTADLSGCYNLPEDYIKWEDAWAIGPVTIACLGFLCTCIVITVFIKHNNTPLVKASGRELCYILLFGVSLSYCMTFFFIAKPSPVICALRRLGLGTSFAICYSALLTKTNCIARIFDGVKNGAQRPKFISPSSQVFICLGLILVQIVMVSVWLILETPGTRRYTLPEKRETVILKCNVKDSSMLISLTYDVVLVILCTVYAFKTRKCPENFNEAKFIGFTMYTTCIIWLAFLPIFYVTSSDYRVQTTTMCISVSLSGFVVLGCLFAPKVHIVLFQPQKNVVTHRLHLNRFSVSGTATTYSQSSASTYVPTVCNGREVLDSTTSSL
Sequence of Metabotropic glutamate receptor 2 (Rattus norvegicus) (P31421 19-872 limits assumed): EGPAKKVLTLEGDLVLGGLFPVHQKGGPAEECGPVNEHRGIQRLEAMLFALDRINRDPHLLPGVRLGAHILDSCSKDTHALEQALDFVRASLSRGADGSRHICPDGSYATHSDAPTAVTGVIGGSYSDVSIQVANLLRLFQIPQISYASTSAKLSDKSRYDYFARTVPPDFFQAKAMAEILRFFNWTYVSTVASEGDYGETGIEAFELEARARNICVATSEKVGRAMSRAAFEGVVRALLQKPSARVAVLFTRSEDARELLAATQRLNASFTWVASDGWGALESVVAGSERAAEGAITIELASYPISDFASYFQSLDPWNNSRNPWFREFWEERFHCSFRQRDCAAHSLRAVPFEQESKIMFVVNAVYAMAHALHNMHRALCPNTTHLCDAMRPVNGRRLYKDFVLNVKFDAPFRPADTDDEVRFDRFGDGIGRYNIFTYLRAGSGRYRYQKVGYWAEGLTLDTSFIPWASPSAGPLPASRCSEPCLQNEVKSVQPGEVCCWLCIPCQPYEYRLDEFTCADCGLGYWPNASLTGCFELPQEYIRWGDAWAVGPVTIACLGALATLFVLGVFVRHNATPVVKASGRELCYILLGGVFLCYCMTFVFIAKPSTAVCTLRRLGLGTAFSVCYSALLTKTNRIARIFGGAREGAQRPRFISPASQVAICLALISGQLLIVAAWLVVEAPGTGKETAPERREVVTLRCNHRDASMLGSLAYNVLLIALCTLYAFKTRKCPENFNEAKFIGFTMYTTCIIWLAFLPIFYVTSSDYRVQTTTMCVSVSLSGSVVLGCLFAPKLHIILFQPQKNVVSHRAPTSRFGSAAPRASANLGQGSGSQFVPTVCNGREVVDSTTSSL

The term EC50 denotes the concentration giving half of the maximal effect. As for `COc1ccc(C(=O)O)cc1OC[C@@H](C)Oc1ccc(C(=O)CC(C)(C)C)c(O)c1C`, the figures for the EC50 in test [1] (read-out: EC50) and in test [4] (read-out: EC50) were 806 nM and 78 nM, respectively. Besides, the Activity in test [2] (setting [5]) stood at 114%; in test [3] (setting [5]), 97%.

Regarding `COc1ccc(OCCCCOc2ccc(C(=O)CC(C)(C)C)c(O)c2C)cc1C(=O)O`, the EC50 in test [1] (read-out: EC50) amounted to 490 nM; in test [4] (read-out: EC50) it was 13 nM. Besides, the figures for the Activity in test [2] (setting [5]) and in test [3] (setting [5]) were 116% and 99%, respectively.

Turning to `Cc1c(OCCCCOc2ccc(C(=O)O)cc2F)ccc(C(=O)CC(C)(C)C)c1O`, the EC50 in test [1] (read-out: EC50) is 1230 nM; in test [4] (read-out: EC50), 75 nM. In addition, the Activity in test [2] (setting [5]) stood at 114%; in test [3] (setting [5]) it was 98%.

As for `COc1ccc(C(=O)O)cc1OC[C@H](C)Oc1ccc(C(=O)CC(C)(C)C)c(O)c1C`, the EC50 in test [1] (read-out: EC50) came out at 3820 nM. Moreover, the Activity in test [3] (setting [5]) came to 71%.

In the case of `COc1cccc(OC[C@H](C)COc2ccc(C(=O)CC(C)(C)C)c(O)c2C)c1`, the EC50 result in test [1] and in test [4] was “Not Active” each time. Further, the outcome in test [2] and in test [3] was inactive.

As for `COc1cc(OCCCCOc2ccc(C(=O)CC(C)(C)C)c(O)c2C)cc(C(=O)O)c1`, the EC50 in test [1] (read-out: EC50) came out at 703 nM; in test [4] (read-out: EC50) it was 102 nM. Also, the values for the Activity in test [2] (setting [5]) and in test [3] (setting [5]) were 116% and 102%, respectively.

As for `Cc1cc(C(=O)O)ccc1OC[C@H](C)COc1ccc(C(=O)CC(C)(C)C)c(O)c1C`, the EC50 in test [1] (read-out: EC50) worked out at 1520 nM; in test [4] (read-out: EC50) it was 446 nM. The Activity in test [2] (setting [5]) is 113%; in test [3] (setting [5]), 97%.

`Cc1c(OCCCCOc2cncc(C(=O)O)c2)ccc(C(=O)CC(C)(C)C)c1O`: the EC50 came out at 180 nM in test [1] (read-out: EC50) and 490 nM in test [4] (read-out: EC50). The Activity in test [2] (setting [5]) stood at 120%; in test [3] (setting [5]), 91%.

In the case of `Cc1ncc(OCCCCOc2ccc(C(=O)CC(C)(C)C)c(O)c2C)cc1C(=O)O`, the EC50 was determined as 79 nM in test [1] (read-out: EC50) and 28 nM in test [4] (read-out: EC50). The Activity in test [2] (setting [5]) was determined as 116%; in test [3] (setting [5]), 103%.

Turning to `Cc1c(OC[C@@H](C)Oc2ccc(F)c(C(=O)O)c2)ccc(C(=O)CC(C)(C)C)c1O`, the results for the EC50 in test [1] (read-out: EC50) and in test [4] (read-out: EC50) were 1210 nM and 112 nM, respectively. In addition, the Activity in test [2] (setting [5]) was determined as 125%; in test [3] (setting [5]) it was 117%.

As for `Cc1c(O[C@H](C)COc2ccc(F)c(C(=O)O)c2)ccc(C(=O)CC(C)(C)C)c1O`, the figures for the EC50 in test [1] (read-out: EC50) and in test [4] (read-out: EC50) were 2410 nM and 83 nM, respectively. In addition, the Activity in test [2] (setting [5]) came out at 118%; in test [3] (setting [5]) it was 79%.

In the case of `COc1cc(C(=O)O)ccc1OC[C@H](C)COc1ccc(C(=O)CC(C)(C)C)c(O)c1C`, the EC50 is 512 nM in test [1] (read-out: EC50) and 28 nM in test [4] (read-out: EC50). Further, the Activity came out at 110% in test [2] (setting [5]) and 93% in test [3] (setting [5]).

Take `Cc1c(OCC(C)COc2ccc(C(=O)O)cc2F)ccc(C(=O)CC(C)(C)C)c1O` (single isomer, unassigned): the figures for the EC50 in test [1] (read-out: EC50) and in test [4] (read-out: EC50) were 1300 nM and 222 nM, respectively. Besides, the figures for the Activity in test [2] (setting [5]) and in test [3] (setting [5]) were 98% and 87%, respectively.

Turning to `COc1ccc(C(=O)O)cc1O[C@@H](C)COc1ccc(C(=O)CC(C)(C)C)c(O)c1C`, the EC50 in test [1] (read-out: EC50) stood at 2210 nM; in test [4] (read-out: EC50), 137 nM. Moreover, the figures for the Activity in test [2] (setting [5]) and in test [3] (setting [5]) were 117% and 91%, respectively.

With `Cc1c(OCCCCOc2ccc(F)c(C(N)=O)c2)ccc(C(=O)CC(C)(C)C)c1O`, the EC50 result in test [1] was “Not Active”; in test [4] (read-out: EC50) it was more than 10000 nM. In addition, the Activity in test [2] (setting [5]) was found to be 107%. The result in test [3] was inactive.

Regarding `COC(=O)c1cc(OCCCCOc2ccc(C(=O)CC(C)(C)C)c(O)c2C)ccc1F`, the EC50 entry in test [1] is reported as “Not Active”. For the same compound, the outcome in test [3] was inactive.

In the case of `Cc1c(OCC(C)COc2cc(C(=O)O)ccc2F)ccc(C(=O)CC(C)(C)C)c1O` (single isomer, unassigned), in test [1] (read-out: EC50), the 50% effective concentration (EC50) turned out to be 3950 nM. The Activity in test [3] (setting [5]) was found to be 74%.

On to `Cc1c(OCCCCOc2ccc(C(=O)O)c(F)c2)ccc(C(=O)CC(C)(C)C)c1O`, for which the EC50 worked out at 1110 nM in test [1] (read-out: EC50) and 80 nM in test [4] (read-out: EC50). Moreover, the Activity stood at 108% in test [2] (setting [5]) and 107% in test [3] (setting [5]).

Take `Cc1c(OCCCCOc2ccc(F)c(C(=O)N(C)C)c2)ccc(C(=O)CC(C)(C)C)c1O`: the values for the EC50 result in test [1] and in test [4] (read-out: EC50) were “Not Active” and 3810 nM, respectively. Besides, in test [2] (setting [5]), the Activity was found to be 60%. Also, the result in test [3] was inactive.

Regarding `Cc1c(OCCCCOc2ccc(Cl)c(C(=O)O)c2)ccc(C(=O)CC(C)(C)C)c1O`, the values for the EC50 in test [1] (read-out: EC50) and in test [4] (read-out: EC50) were 130 nM and 87 nM, respectively. Further, the Activity is 112% in test [2] (setting [5]) and 87% in test [3] (setting [5]).

As for `Cc1ccc(C(=O)O)cc1OCCCCOc1ccc(C(=O)CC(C)(C)C)c(O)c1C`, the values for the EC50 in test [1] (read-out: EC50) and in test [4] (read-out: EC50) were 892 nM and 512 nM, respectively. Further, the Activity in test [2] (setting [5]) turned out to be 120%; in test [3] (setting [5]), 144%.

In the case of `Cc1ccc(OC[C@H](C)COc2ccc(C(=O)CC(C)(C)C)c(O)c2C)cc1C(=O)O`, in test [1] (read-out: EC50), the EC50 is more than 10000 nM. For the same compound, in test [3] (setting [5]), the Activity worked out at 48%.

As to `COc1ccc(OCCCCOc2ccc(C(=O)CC(C)(C)C)c(O)c2C)cc1`, the EC50 result in test [1] was “Not Active”; in test [4] (read-out: EC50) it was more than 10000 nM. Further, in test [2] (setting [5]), the Activity came to 103%. Also, in test [3], the result was inactive.

Turning to `COc1ccc(C(=O)N(C)C)cc1OCC(C)COc1ccc(C(=O)CC(C)(C)C)c(O)c1C` (single isomer, unassigned), the EC50 entry in test [1] was “Not Active”; in test [4] (read-out: EC50) it was 5060 nM. In addition, the Activity in test [2] (setting [5]) is 82%. For the same compound, the result in test [3] was inactive.

With `COc1ccccc1OCC(C)COc1ccc(C(=O)CC(C)(C)C)c(O)c1C` (single isomer, unassigned), the EC50 entry in test [1] and in test [4] was “Not Active” each time. The result in test [2] and in test [3] was inactive.

Turning to `Cc1ccc(OCCCCOc2ccc(C(=O)CC(C)(C)C)c(O)c2C)cc1C(=O)O`, the figures for the EC50 in test [1] (read-out: EC50) and in test [4] (read-out: EC50) were 309 nM and 210 nM, respectively. Besides, the results for the Activity in test [2] (setting [5]) and in test [3] (setting [5]) were 90% and 88%, respectively.

Take `Cc1cc(OC[C@H](C)COc2ccc(C(=O)CC(C)(C)C)c(O)c2C)ccc1C(=O)O`: the 50% effective concentration (EC50) worked out at 1350 nM in test [1] (read-out: EC50) and 305 nM in test [4] (read-out: EC50). For the same compound, the values for the Activity in test [2] (setting [5]) and in test [3] (setting [5]) were 91% and 80%, respectively.

As for `Cc1c(OC[C@@H](C)COc2ccc(C(=O)O)c(F)c2)ccc(C(=O)CC(C)(C)C)c1O`, the EC50 in test [1] (read-out: EC50) was 1090 nM; in test [4] (read-out: EC50), 261 nM. Moreover, the Activity in test [2] (setting [5]) amounted to 94%; in test [3] (setting [5]), 86%.

Regarding `COc1ccc(C(=O)O)cc1O[C@H](C)COc1ccc(C(=O)CC(C)(C)C)c(O)c1C`, the EC50 in test [1] (read-out: EC50) was 1850 nM. Besides, the Activity in test [3] (setting [5]) was found to be 111%.

With `Cc1c(OC[C@H](C)COc2ccc(F)c(C(=O)O)c2)ccc(C(=O)CC(C)(C)C)c1O`, the results for the half-maximal effective concentration (EC50) in test [1] (read-out: EC50) and in test [4] (read-out: EC50) were 651 nM and 294 nM, respectively. Further, the Activity in test [2] (setting [5]) came out at 114%; in test [3] (setting [5]), 87%.

Take `COc1ccc(C(=O)O)cc1OC[C@@H](C)COc1ccc(C(=O)CC(C)(C)C)c(O)c1C`: the EC50 in test [1] (read-out: EC50) was found to be 1040 nM. Further, in test [3] (setting [5]), the Activity stood at 120%.

Values taken from ChEMBL document CHEMBL4834498, “Positive allosteric modulators (PAMs) of the group II metabotropic glutamate receptors: Design, synthesis, and evaluation as ex-vivo tool compounds” (Bioorg Med Chem Lett, 2021).
